The values that follow come from paper PMC2954314 (European Journal of Pharmaceutical Sciences, 2010).

For orientation: Ki means the dissociation constant of the complex between target and ligand, obtained from inhibition or displacement. By ED50 is commonly meant the dose at which the effect has come halfway, by size or by number of responders.

Entries after “also recorded” stand apart in the source; their conditions may differ. Structures can show the parent of a compound that is named as a salt. Where only a bound is given, the exact number is not on record here.

Data set [1] deals with κ opioid receptor (Cavia porcellus, UniProt P41144). In words: Opioid receptor competition binding, [3H]U69,593, guinea pig brain membranes.
Data set [2] concerns the target μ opioid receptor (Rattus norvegicus, UniProt P33535). The data set is described as follows: Opioid receptor competition binding, [3H]DAMGO, rat brain membranes.
The target of data set [3] is δ opioid receptor (Rattus norvegicus, UniProt P33533). In kind it is binding.
In data set [4] the test system is mice. The data set is described as follows: Hot-plate test after s.c. administration. Format: in vivo. To be noted: Mus musculus, sc, 0.5 h, read-out: ED50 Hot-plate test. For orientation: In hot-plate and tail-flick tests a longer latency is read as antinociception.
For data set [5], the system named is mice. The data set is described as follows: Tail-flick test after s.c. administration. Format: in vivo. To be noted: Mus musculus, sc, 0.5 h, read-out: ED50 Tail-flick test.
The test system of data set [6] is mice. In words: Rotarod test of motor coordination after s.c. administration. Format: in vivo, mouse. The conditions noted are these: 10 mg/kg (dose range 1.25–10 mg/kg), 30 min.
Data set [7] concerns the target δ opioid receptor. The conditions noted are these: read-out: Ki δ; ref Spetea et al., 2005; cited from earlier work.
For data set [8], the target named is κ opioid receptor. The conditions noted are these: read-out: Ki κ; ref Spetea et al., 2005; cited from earlier work.

With `COc1ccc2c3c1O[C@@]1(Cc4ccccc4)C(=O)C=C[C@@]4(OC)[C@@H](C2)N(C)CC[C@]314` [Compound 3, 5β-Benzyl-14-methoxycodeinone hydrochloride], the figures for the Ki in data set [1], in data set [2] and in data set [3] were 1890 ± 453 nM, 34.1 ± 6 nM and above 10000 nM, respectively.
`CN1CC[C@]23c4c5ccc(O)c4O[C@H]2[C@@H](O)C=C[C@H]3[C@H]1C5` [Morphine, Morphine hydrochloride]: the figures for the ED50 in data set [4] and in data set [5] were 2.63 mg/kg and 2.29 mg/kg, respectively. The “Effect on motor coordination (rotarod latencies)” value in data set [6] was “significant effect; also recorded: dose-dependent suppressive effects on motor coordination with significance”.
As for `COc1ccc2c3c1O[C@H]1C(=O)CC[C@@]4(O)[C@@H](C2)N(C)CC[C@]314` [oxycodone], the inhibitory constant (Ki) in data set [7] was […]; in data set [8] it was […].
